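All cell lines were grown in 96-well plates and treated with compound for 48 hours. TGI marks complete inhibition of growth.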
Legend:
Experiment in all cases: DTP human tumour cell line panel, 48 h
[1] = test system: ACHN renal
[2] = test system: SW-620 colon
[3] = test system: MCF7 breast
[4] = test system: NCI-H23 lung
[5] = test system: IGROV1 ovarian
[6] = test system: OVCAR-8 ovarian
[7] = test system: K-562 leukemia
[8] = test system: UO-31 renal
[9] = test system: COLO 205 colon
[10] = test system: DU-145 prostate
[11] = test system: HCC-2998 colon
[12] = test system: UACC-62 melanoma
[13] = test system: SNB-75 CNS
[14] = test system: MDA-MB-435
[15] = test system: NCI-H522 lung
[16] = test system: SF-539 CNS
[17] = test system: SF-295 CNS
[18] = test system: HCT-15 colon
[19] = test system: NCI-H460 lung
[20] = test system: KM12 colon
[21] = test system: HCT-116 colon
[22] = test system: OVCAR-3 ovarian
[23] = test system: A549 NSCLC
[24] = test system: SK-MEL-28 melanoma
[25] = test system: MALME-3M melanoma
[26] = test system: M14 melanoma
[27] = test system: NCI/ADR-RES ovarian
[28] = test system: EKVX NSCLC
[29] = test system: LOX IMVI melanoma
[30] = test system: TK-10 renal
[31] = test system: T-47D breast
[32] = test system: MDA-MB-231 breast
[33] = test system: NCI-H226 lung
[34] = test system: MOLT-4 leukemia
[35] = test system: CAKI-1 renal
[36] = test system: SK-MEL-2 melanoma
[37] = test system: CCRF-CEM leukemia
[38] = test system: UACC-257 melanoma
[39] = test system: U251 CNS
[40] = test system: OVCAR-4 ovarian
[41] = test system: RXF 393 renal
[42] = test system: SK-MEL-5 melanoma
[43] = test system: HOP-92 NSCLC
[44] = test system: BT-549 breast
[45] = test system: SK-OV-3 ovarian
[46] = test system: 786-0 renal
[47] = test system: MDA-N
[48] = test system: SN12C renal
[49] = test system: SR leukemia
[50] = test system: SNB-19 CNS
[51] = test system: HT29 colon
[52] = test system: OVCAR-5 ovarian
[53] = test system: HL-60(TB) leukemia
[54] = test system: PC-3 prostate
[55] = test system: SF-268 CNS
[56] = test system: HS 578T breast
[57] = test system: A498 renal
[58] = test system: RPMI-8226 leukemia
[59] = test system: HOP-62 NSCLC

## COc1ccc(N[C@H](CS(=O)c2ccc(C)cc2)C(F)(F)F)cc1 (stereo partly drawn)
[1]
  TGI: > 100 µM
[2]
  TGI: > 100 µM
[3]
  TGI: > 100 µM
[4]
  TGI: > 100 µM
[5]
  TGI: > 100 µM
[6]
  TGI: > 100 µM
[7]
  TGI: > 100 µM
[8]
  TGI: > 100 µM
[9]
  TGI: > 100 µM
[10]
  TGI: > 100 µM
[11]
  TGI: > 100 µM
[12]
  TGI: > 100 µM
[13]
  TGI: > 100 µM
[14]
  TGI: > 100 µM
[15]
  TGI: > 100 µM
[16]
  TGI: > 100 µM
[17]
  TGI: > 100 µM
[18]
  TGI: > 100 µM
[19]
  TGI: > 100 µM
[20]
  TGI: > 100 µM
[21]
  TGI: > 100 µM
[22]
  TGI: > 100 µM
[23]
  TGI: > 100 µM
[24]
  TGI: > 100 µM
[25]
  TGI: > 100 µM
[26]
  TGI: > 100 µM
[27]
  TGI: > 100 µM
[28]
  TGI: > 100 µM
[29]
  TGI: > 100 µM
[30]
  TGI: > 100 µM
[31]
  TGI: > 100 µM
[32]
  TGI: > 100 µM
[33]
  TGI: > 100 µM
[34]
  TGI: > 100 µM
[35]
  TGI: > 100 µM
[36]
  TGI: > 100 µM
[37]
  TGI: > 100 µM
[38]
  TGI: > 100 µM
[39]
  TGI: > 100 µM
[40]
  TGI: > 100 µM
[41]
  TGI: > 100 µM
[42]
  TGI: > 100 µM
[43]
  TGI: > 100 µM
[44]
  TGI: > 100 µM
[45]
  TGI: > 100 µM
[46]
  TGI: > 100 µM
[47]
  TGI: > 100 µM
[48]
  TGI: > 100 µM
[49]
  TGI: > 100 µM
[50]
  TGI: > 100 µM
[51]
  TGI: > 100 µM
[52]
  TGI: > 100 µM
[53]
  TGI: > 100 µM
[54]
  TGI: > 100 µM

## C/C1=C\[C@@H](C)C[C@@H](C)OC(=O)[C@@H](C)NC(=O)[C@H](Cc2ccc(O)c(Br)c2)N(C)C(=O)CNC(=O)[C@H](C)C1
[1]
  TGI: 0.249 µM
[2]
  TGI: > 100 µM
[3]
  TGI: > 100 µM
[5]
  TGI: 0.033 µM
[6]
  TGI: > 40.4 µM
[7]
  TGI: > 100 µM
[8]
  TGI: 0.127 µM
[9]
  TGI: > 100 µM
[10]
  TGI: > 100 µM
[11]
  TGI: 70.1 µM
[12]
  TGI: > 55.1 µM
[13]
  TGI: < 0.01 µM
[14]
  TGI: > 44.3 µM
[55]
  TGI: 1.89 µM
[16]
  TGI: 0.677 µM
[17]
  TGI: 5.55 µM
[18]
  TGI: 44.2 µM
[19]
  TGI: > 69.1 µM
[20]
  TGI: > 100 µM
[21]
  TGI: > 55.2 µM
[22]
  TGI: 0.0243 µM
[56]
  TGI: 0.69 µM
[23]
  TGI: > 100 µM
[24]
  TGI: 17.3 µM
[25]
  TGI: 9.83 µM
[26]
  TGI: > 100 µM
[27]
  TGI: > 57 µM
[29]
  TGI: < 0.01 µM
[30]
  TGI: 0.26 µM
[57]
  TGI: < 0.021 µM
[58]
  TGI: 56.1 µM
[32]
  TGI: 5.34 µM
[34]
  TGI: > 64.1 µM
[36]
  TGI: 25.6 µM
[37]
  TGI: < 0.01 µM
[38]
  TGI: 27.2 µM
[39]
  TGI: 5.34 µM
[41]
  TGI: < 0.0429 µM
[42]
  TGI: > 52.8 µM
[43]
  TGI: 0.0993 µM
[44]
  TGI: 2.16 µM
[45]
  TGI: 5.26 µM
[46]
  TGI: 5.84 µM
[47]
  TGI: > 100 µM
[48]
  TGI: > 100 µM
[50]
  TGI: > 100 µM
[51]
  TGI: > 100 µM
[52]
  TGI: > 100 µM
[53]
  TGI: < 0.01 µM
[54]
  TGI: 5.04 µM

## Cc1ccc(S(=O)(=O)NC(Cc2ccccc2)C(=O)CCl)cc1 (stereo not drawn)
[1]
  TGI: 30.1 µM
[2]
  TGI: 24.1 µM
[3]
  TGI: 24.5 µM
[4]
  TGI: 26.8 µM
[5]
  TGI: 28.8 µM
[6]
  TGI: 29.7 µM
[7]
  TGI: > 100 µM
[8]
  TGI: 27 µM
[9]
  TGI: 32.3 µM
[10]
  TGI: 31.6 µM
[11]
  TGI: 26.9 µM
[12]
  TGI: 26.4 µM
[59]
  TGI: 31 µM
[13]
  TGI: 28 µM
[14]
  TGI: 30.3 µM
[15]
  TGI: 21.4 µM
[55]
  TGI: 31.4 µM
[16]
  TGI: 30.4 µM
[17]
  TGI: 36.6 µM
[18]
  TGI: 31.6 µM
[19]
  TGI: 29.3 µM
[21]
  TGI: 23.8 µM
[22]
  TGI: 29.2 µM
[56]
  TGI: 11.3 µM
[23]
  TGI: 31.5 µM
[24]
  TGI: 32.9 µM
[25]
  TGI: 27.8 µM
[26]
  TGI: 26.2 µM
[27]
  TGI: 62.9 µM
[28]
  TGI: 34.4 µM
[29]
  TGI: 20.1 µM
[30]
  TGI: 30.9 µM
[57]
  TGI: 31.7 µM
[32]
  TGI: 27.3 µM
[33]
  TGI: 33.1 µM
[36]
  TGI: 26 µM
[37]
  TGI: > 100 µM
[38]
  TGI: 24.9 µM
[39]
  TGI: 29.7 µM
[40]
  TGI: 18.9 µM
[41]
  TGI: 6.33 µM
[42]
  TGI: 25 µM
[43]
  TGI: 26.8 µM
[44]
  TGI: 23.9 µM
[45]
  TGI: 47 µM
[46]
  TGI: 27.8 µM
[47]
  TGI: 27.8 µM
[48]
  TGI: 25.3 µM
[50]
  TGI: 32.1 µM
[51]
  TGI: 28.5 µM
[52]
  TGI: 31.2 µM
[53]
  TGI: > 100 µM
[54]
  TGI: 29.5 µM

## CCCCC1Nc2ccccc2-c2ccnc(Cl)c21 (stereo not drawn)
[1]
  TGI: 68.4 µM
[2]
  TGI: > 100 µM
[3]
  TGI: > 100 µM
[4]
  TGI: 31.4 µM
[5]
  TGI: 47.9 µM
[7]
  TGI: 62.8 µM
[8]
  TGI: 55.8 µM
[9]
  TGI: 36 µM
[10]
  TGI: 50.3 µM
[11]
  TGI: 69.4 µM
[12]
  TGI: 32.2 µM
[59]
  TGI: 53.3 µM
[13]
  TGI: 52.3 µM
[14]
  TGI: 41.7 µM
[15]
  TGI: 29.6 µM
[55]
  TGI: 89.2 µM
[16]
  TGI: 41.8 µM
[17]
  TGI: 47.7 µM
[18]
  TGI: 44.4 µM
[19]
  TGI: > 100 µM
[20]
  TGI: 69 µM
[21]
  TGI: 32.3 µM
[22]
  TGI: 25.2 µM
[56]
  TGI: 32.3 µM
[23]
  TGI: > 100 µM
[24]
  TGI: 46.5 µM
[25]
  TGI: 51 µM
[26]
  TGI: 43.1 µM
[27]
  TGI: 99.6 µM
[28]
  TGI: 60.5 µM
[29]
  TGI: 34.7 µM
[30]
  TGI: > 100 µM
[57]
  TGI: 46.4 µM
[58]
  TGI: 31.9 µM
[32]
  TGI: 43.8 µM
[33]
  TGI: 39.9 µM
[34]
  TGI: 50.9 µM
[35]
  TGI: 20.2 µM
[36]
  TGI: 35.8 µM
[37]
  TGI: 52.6 µM
[38]
  TGI: 42.3 µM
[39]
  TGI: 50.1 µM
[40]
  TGI: 91.5 µM
[41]
  TGI: 40.8 µM
[42]
  TGI: 30.3 µM
[43]
  TGI: 40.9 µM
[44]
  TGI: 42.6 µM
[45]
  TGI: 55.7 µM
[46]
  TGI: 45.2 µM
[47]
  TGI: 54.9 µM
[48]
  TGI: 51 µM
[49]
  TGI: 51 µM
[50]
  TGI: 77.7 µM
[51]
  TGI: 47.6 µM
[53]
  TGI: 51.8 µM
[54]
  TGI: > 100 µM
